Assay results taken from patent US20190142800A1, “SYNERGISTIC ANTIFUNGAL COMPOSITIONS AND METHODS THEREOF” (VYOME THERAPEUTICS LIMITED, priority 2016, published 2019).
Each block holds one molecule with its values, some of them ahead of it.

What was measured:
[1] = tested on: Trichophyton rubrum (ATCC-28188); assay: Checkerboard assay of fatty acid/ester with antifungals on Trichophyton rubrum (ATCC 28188); type: cell-based; design: key to FIC index: FIC index = sum of FICs; FIC = agent conc in well / agent MIC; details: for MIC: Trichophyton rubrum, ATCC28188, agent alone
Protocol: (§1) The synergy is measured by determining the fractional inhibitory concentration (FIC) value of the combination. This experimental set up, called checkerboard method, allows measurement of a desired effect (inhibition of fungal growth in this case) at different combinations of various concentrations of the two agents (antifungal agent and fatty acid/ester). […] No agent is added to the penultimate column on the right and the bottom row. The final column on the right is used for growth control (only inoculum in broth) and sterility control (broth alone, no inoculum). […] FIC value for each agent in a particular well of the checkerboard layout was calculated by dividing the agent concentration in that well by the established MIC value of the agent against the test organism (Hsieh et al., Synergy assessed by checkerboard: A critical Analysis, Diagn. Microbiol. Infect Dis. (1993) 16:343-349). FIC values for both agents in a particular well were calculated in this way followed by determination of the FIC index (sum of the FICs of each drug in the concerned well). […] Agents Chemother. (2010) 54(2): 602-609].
(§2) Using the checkerboard layout experimental setup described above (FIG. 1A), various medium-chain fatty acids were tested for their ability to potentiate the activity of a known antifungal agent. Concentrations above and below the MIC of each test agent were tested using serial dilution. The same procedure was expanded to test combinations of various medium-chain fatty acids C-1 to C-14 (such caprylic acid, undecylenic acid and lauric acid) and esters thereof, with antifungal agents from various classes including azoles, allylamines, benzylamines, zinc pyrithione and piroctone olamine against both susceptible and resistant Trichophyton spp. (filamentous fungus) and Candida spp. (yeast).
(§3) Potentiation of the activity of antimycotic agents using ester derivatives of medium chain fatty acids was tested in a standard, well accepted in vitro assay system to check for synergy. This experimental set up, called checkerboard method, allows measurement of a desired effect (inhibition of fungal growth in this case) at different combinations of various concentrations of two agents. A chosen medium chain fatty acid (C-1 to C-14) or its ester derivative was tested for its ability to potentiate the activity of a known antifungal agent (various classes) using the checkerboard layout. Various concentrations above and below the MIC of each test agent were tested using serial dilution in Sabouraud dextrose broth. […] FIC value for a drug in a particular well of the checkerboard layout is calculated by dividing the drug concentration in that well by the established MIC value of the drug against the test organism (Hsieh et al., Synergy assessed by checkerboard: A critical Analysis, Diagn. Microbiol. Infect Dis. (1993) 16:343-349). FIC values for both test agents in a particular well are calculated in this way followed by determination of the FIC index (sum of the FICs of each drug in the concerned well).

[2] = tested on: azole resistant C. albicans MTCC 227; assay: Checkerboard assay on azole resistant C. albicans MTCC 227; type: cell-based, Candida albicans; details: for MIC: Candida albicans, MTCC227, agent alone
Protocol: as §1, with “FIC” for “FIC value for each agent in a particular well of the checkerboard layout was calculated by dividing the agent concentration in that well by the established MIC value of the agent against the test organism (Hsieh et al., Synergy assessed by checkerboard: A critical Analysis, Diagn. Microbiol. Infect Dis. (1993) 16:343-349). FIC”, “Chemother.” for “Chemother. (2010) 54(2): 602-609].”
as §2
as §3, with “FIC” for “FIC value for a drug in a particular well of the checkerboard layout is calculated by dividing the drug concentration in that well by the established MIC value of the drug against the test organism (Hsieh et al., Synergy assessed by checkerboard: A critical Analysis, Diagn. Microbiol. Infect Dis. (1993) 16:343-349). FIC”

[3] = Table 2, propylene glycol monocaprylate series
[4] = Table 3, glyceryl monocaprylate series
[5] = agent's MIC in combination antifungal + caprylic acid (partner: other agent of same combination no.)
[6] = agent's MIC in combination antifungal + glyceryl monocaprylate (partner: other agent of same combination no.)
[7] = agent's MIC in combination antifungal + propylene glycol monocaprylate (partner: other agent of same combination no.)
[8] = antifungal in combination with caprylic acid
[9] = antifungal in combination with glyceryl monocaprylate
[10] = antifungal in combination with propylene glycol monocaprylate
[11] = combination antifungal + caprylic acid
[12] = combination antifungal + glyceryl monocaprylate
[13] = combination antifungal + propylene glycol monocaprylate
[14] = Table 9, caprylic acid (C8) series
[15] = Table 10, propylene glycol monocaprylate series
[16] = Table 11, glyceryl monocaprylate series
[17] = Table 12, undecylenic acid (C11) series
[18] = Table 13, lauric acid (C12) series
[19] = Table 14, propylene glycol monolaurate series
[20] = agent's MIC in combination antifungal + lauric acid (partner: other agent of same combination no.)
[21] = agent's MIC in combination antifungal + propylene glycol monolaurate (partner: other agent of same combination no.)
[22] = agent's MIC in combination antifungal + undecylenic acid (partner: other agent of same combination no.)
[23] = antifungal in combination with lauric acid
[24] = antifungal in combination with propylene glycol monolaurate
[25] = antifungal in combination with undecylenic acid
[26] = combination antifungal + lauric acid
[27] = combination antifungal + propylene glycol monolaurate
[28] = combination antifungal + undecylenic acid
[29] = Table 5, lauric acid (C12) series

- MIC ([1]; Table 1, caprylic acid series): 0.312 µg/mL
- MIC [1, 3]: 0.3 µg/mL
- MIC [1, 4]: 0.321 µg/mL
- Combination MIC [1, 5]: 0.0781 µg/mL
- Combination MIC [1, 6]: 0.009 µg/mL
- Combination MIC [1, 7]: 0.0375 µg/mL
- MIC [2, 14]: 64 µg/mL
- MIC [2, 15]: 128 µg/mL
- MIC [2, 16]: 128 µg/mL
- MIC [2, 17]: 128 µg/mL
- MIC [2, 18]: 64 µg/mL
- MIC [2, 19]: 128 µg/mL
- Combination MIC [2, 5]: 0.25 µg/mL
- Combination MIC [2, 6]: 2 µg/mL
- Combination MIC [2, 20]: 0.25 µg/mL
- Combination MIC [2, 7]: 8 µg/mL
- Combination MIC [2, 21]: 32 µg/mL
- Combination MIC [2, 22]: 1 µg/mL
SMILES: CC(=O)N1CCN(c2ccc(OCC3COC(Cn4ccnc4)(c4ccc(Cl)cc4Cl)O3)cc2)CC1 (centres unmarked) [Ketoconazole]
- FIC index [1, 8]: 0.5
- Interaction [1, 8]: Synergistic (Combinations that gave FIC indices less than 1 were designated “synergistic”)
- FIC index [1, 9]: 0.531
- Interaction [1, 9]: Synergistic (Combinations that gave FIC indices less than 1 were designated “synergistic”)
- FIC index [1, 10]: 0.625
- Interaction [1, 10]: Synergistic (Combinations that gave FIC indices less than 1 were designated “synergistic”)
- FIC [1, 11]: 0.25
- FIC [1, 12]: 0.031
- FIC [1, 13]: 0.125
- FIC index [2, 8]: 0.253
- Interaction [2, 8]: Synergistic (Combinations that gave FIC indices less than 1 were designated “synergistic”)
- FIC index [2, 9]: 0.265
- Interaction [2, 9]: Synergistic (Combinations that gave FIC indices less than 1 were designated “synergistic”)
- FIC index [2, 23]: 0.127
- Interaction [2, 23]: Synergistic (Combinations that gave FIC indices less than 1 were designated “synergistic”)
- FIC index [2, 10]: 0.187
- Interaction [2, 10]: Synergistic (Combinations that gave FIC indices less than 1 were designated “synergistic”)
- FIC index [2, 24]: 0.281
- Interaction [2, 24]: Synergistic (Combinations that gave FIC indices less than 1 were designated “synergistic”)
- FIC index [2, 25]: 0.132
- Interaction [2, 25]: Synergistic (Combinations that gave FIC indices less than 1 were designated “synergistic”)
- FIC [2, 11]: 0.003
- FIC [2, 12]: 0.0156
- FIC [2, 26]: 0.003
- FIC [2, 13]: 0.0625
- FIC [2, 27]: 0.25
- FIC [2, 28]: 0.0078

- MIC [1, 29]: 15.6 µg/mL
- MIC [2, 18]: 3120 µg/mL
SMILES: CCCCCCCCCCCC(=O)O [Lauric acid]

- MIC ([1]; Table 1, caprylic acid series): 0.125 µg/mL
- MIC [1, 3]: 0.125 µg/mL
- MIC [1, 4]: 0.125 µg/mL
- MIC ([1]; Table 4, undecylenic acid (C11) series): 0.03 µg/mL
- MIC [1, 29]: 0.03 µg/mL
- MIC ([1]; Table 6, propylene glycol monolaurate series): 0.03 µg/mL
- Combination MIC [1, 5]: 0.0625 µg/mL
- Combination MIC [1, 6]: 0.0625 µg/mL
- Combination MIC [1, 20]: 0.015 µg/mL
- Combination MIC [1, 7]: 0.007 µg/mL
- Combination MIC [1, 21]: 0.008 µg/mL
- Combination MIC [1, 22]: 0.015 µg/mL
- MIC [2, 14]: 128 µg/mL
- MIC [2, 15]: 128 µg/mL
- MIC [2, 16]: 128 µg/mL
- MIC [2, 17]: 128 µg/mL
- MIC [2, 18]: 128 µg/mL
- MIC [2, 19]: 128 µg/mL
- Combination MIC [2, 5]: 0.5 µg/mL
- Combination MIC [2, 6]: 1 µg/mL
- Combination MIC [2, 20]: 0.5 µg/mL
- Combination MIC [2, 7]: 4 µg/mL
- Combination MIC [2, 21]: 0.5 µg/mL
- Combination MIC [2, 22]: 4 µg/mL
SMILES: C=C1CCN([C@H](C)[C@](O)(Cn2cncn2)c2ccc(F)cc2F)CC1 [Efinaconazole]
- FIC index [1, 8]: 0.625
- Interaction [1, 8]: Synergistic (Combinations that gave FIC indices less than 1 were designated “synergistic”)
- FIC index [1, 9]: 0.625
- Interaction [1, 9]: Synergistic (Combinations that gave FIC indices less than 1 were designated “synergistic”)
- FIC index [1, 23]: 0.75
- Interaction [1, 23]: Synergistic (Combinations that gave FIC indices less than 1 were designated “synergistic”)
- FIC index [1, 10]: 0.556
- Interaction [1, 10]: Synergistic (Combinations that gave FIC indices less than 1 were designated “synergistic”)
- FIC index [1, 24]: 0.76
- Interaction [1, 24]: Synergistic (Combinations that gave FIC indices less than 1 were designated “synergistic”)
- FIC index [1, 25]: 0.74
- Interaction [1, 25]: Synergistic (Combinations that gave FIC indices less than 1 were designated “synergistic”)
- FIC [1, 11]: 0.5
- FIC [1, 12]: 0.5
- FIC [1, 26]: 0.5
- FIC [1, 13]: 0.056
- FIC [1, 27]: 0.266
- FIC [1, 28]: 0.5
- FIC index [2, 8]: 0.3
- Interaction [2, 8]: Synergistic (Combinations that gave FIC indices less than 1 were designated “synergistic”)
- FIC index [2, 9]: 0.257
- Interaction [2, 9]: Synergistic (Combinations that gave FIC indices less than 1 were designated “synergistic”)
- FIC index [2, 23]: 0.128
- Interaction [2, 23]: Synergistic (Combinations that gave FIC indices less than 1 were designated “synergistic”)
- FIC index [2, 10]: 0.281
- Interaction [2, 10]: Synergistic (Combinations that gave FIC indices less than 1 were designated “synergistic”)
- FIC index [2, 24]: 0.018
- Interaction [2, 24]: Synergistic (Combinations that gave FIC indices less than 1 were designated “synergistic”)
- FIC index [2, 25]: 0.093
- Interaction [2, 25]: Synergistic (Combinations that gave FIC indices less than 1 were designated “synergistic”)
- FIC [2, 11]: 0.062
- FIC [2, 12]: 0.007
- FIC [2, 26]: 0.003
- FIC [2, 13]: 0.031
- FIC [2, 27]: 0.003
- FIC [2, 28]: 0.031
